Patent publication US12409171B2, “Pharmaceutically active pyrazolo-pyridone modulators of DCN1/2-mediated cullin neddylation” (UNIVERSITY OF KENTUCKY RESEARCH FOUNDATION, priority 2019, dated 2025)

Target: DCN1 (Homo sapiens (Human), UniProt Q96GG9)
Test: TR-FRET binding assay (biotin-DCN1 / Ac-UBE2M12-AlexaFluor488)
Settings: mean ± SD (n); read-out: DCN1_TRFRET Mean EC50
Method: • IC50 values were generated using our TR-FRET binding assay and are represented as the mean of three replicates with errors reported as the standard deviation.
The assay cocktail was then incubated for 1 h at room temperature and distributed using a WellMate instrument (Matrix). Compounds to be screened were added to assay plates from DMSO stock solutions by pin transfer using 50SS pins (V&P Scientific). […] All compounds were tested in triplicate or more.

Chain of DCN1 (Q96GG9 whole entry): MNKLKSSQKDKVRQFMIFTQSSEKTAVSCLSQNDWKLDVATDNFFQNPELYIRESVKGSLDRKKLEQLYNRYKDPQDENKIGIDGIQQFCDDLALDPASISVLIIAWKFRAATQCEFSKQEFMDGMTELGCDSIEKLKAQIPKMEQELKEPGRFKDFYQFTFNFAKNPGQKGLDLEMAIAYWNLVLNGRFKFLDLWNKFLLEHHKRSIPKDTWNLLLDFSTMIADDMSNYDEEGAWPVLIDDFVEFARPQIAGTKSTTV

SMILES | EC50 [nM]
CCN1C(=O)[C@@H](NC(=O)c2cccc(C(F)(F)F)c2)[C@@H](c2ccc(F)c(C(F)(F)F)c2)c2c(C)nn(-c3ccccc3)c21 [RG-0013990, N-[(4S,5S)-7-ethyl-4-[4-fluoro-3-(trifluoromethyl)phenyl]-3-methyl-6-oxo-1-phenyl-1H,4H,5H,6H,7H-pyrazolo[3,4-b]pyridin-5-yl]-3-(trifluoromethyl)benzamide] | 4810 ± 152
Cc1nn(-c2ccccc2)c2c1[C@H](c1ccc(F)cc1)[C@H](NC(=O)c1cccc(C(F)(F)F)c1)C(=O)N2CCO[Si](C)(C)C(C)(C)C [RG-0014164, N-[(4S,5S)-7-{2-[(tert-butyldimethylsilyl)oxy]ethyl}-4-(4-fluorophenyl)-3-methyl-6-oxo-1-phenyl-1H,4H,5H,6H,7H-pyrazolo[3,4-b]pyridin-5-yl]-3-(trifluoromethyl)benzamide] | > 36500
C=CCN1C(=O)[C@@H](NC(=O)c2cccc(C(F)(F)F)c2)[C@@H](c2ccc(F)cc2)c2c(C)nn(-c3ccccc3)c21 [RG-0014007, N-[(4S,5S)-4-(4-fluorophenyl)-3-methyl-6-oxo-1-phenyl-7-(prop-2-en-1-yl)-1H,4H,5H,6H,7H-pyrazolo[3,4-b]pyridin-5-yl]-3-(trifluoromethyl)benzamide] | 1550 ± 157
CCN1C(=O)[C@@H](NC(=O)c2cccc(C(F)(F)F)c2)[C@@H](c2ccc(F)cc2)c2c(CN3CCN(CC(F)(F)F)CC3)nn(-c3ccccc3)c21 [RG-0014150, N-[(4S,5S)-7-ethyl-4-(4-fluorophenyl)-6-oxo-1-phenyl-3-{[4-(2,2,2-trifluoroethyl)piperazin-1-yl]methyl}-1H,4H,5H,6H,7H-pyrazolo[3,4-b]pyridin-5-yl]-3-(trifluoromethyl)benzamide] | 173 ± 21.9
CCCn1nc(C)c2c1N(C)C(=O)[C@@H](NC(=O)c1cccc(C)c1)[C@H]2c1ccc(F)cc1 [RG-0007411, N-[(4S,5S)-4-(4-fluorophenyl)-3,7-dimethyl-6-oxo-1-propyl-1H,4H,5H,6H,7H-pyrazolo[3,4-b]pyridin-5-yl]-3-methylbenzamide] | 585 ± 106
CCN1C(=O)[C@@H](NC(=O)c2cccc(C(F)(F)F)c2)[C@@H](c2ccc(F)cc2)c2c(CNC(=O)CC(C)C)nn(-c3ccccc3)c21 [RG-0014052, N-[(4S,5S)-7-ethyl-4-(4-fluorophenyl)-3-[(3-methylbutanamido)methyl]-6-oxo-1-phenyl-1H,4H,5H,6H,7H-pyrazolo[3,4-b]pyridin-5-yl]-3-(trifluoromethyl)benzamide] | 114 ± 8.67
CCN1C(=O)[C@@H](NC(=O)C(C)(C)C)[C@@H](c2ccc(F)cc2)c2c(C)nn(-c3ccccc3)c21 [RG-0014063, N-[(4S,5S)-7-ethyl-4-(4-fluorophenyl)-3-methyl-6-oxo-1-phenyl-1H,4H,5H,6H,7H-pyrazolo[3,4-b]pyridin-5-yl]-2,2-dimethylpropanamide] | > 36500
Cc1cccc(C(=O)N[C@@H]2CNc3c(c(C)nn3-c3ccccc3)[C@@H]2c2ccc(F)cc2)c1 [RG-0009506, N-[(4S,5S)-4-(4-fluorophenyl)-3-methyl-1-phenyl-1H,4H,5H,6H,7H-pyrazolo[3,4-b]pyridin-5-yl]-3-methylbenzamide] | > 36500
CCN1C(=O)[C@@H](NC(=O)c2cccc(C(F)(F)F)c2)[C@@H](c2ccc(F)cc2)c2c(CN3CCC(F)(F)CC3)nn(-c3ccccc3)c21 [RG-0014146, N-[(4S,5S)-3-[(4,4-difluoropiperidin-1-yl)methyl]-7-ethyl-4-(4-fluorophenyl)-6-oxo-1-phenyl-1H,4H,5H,6H,7H-pyrazolo[3,4-b]pyridin-5-yl]-3-(trifluoromethyl)benzamide] | 321 ± 27.3
C=CC(=O)NCc1nn(-c2ccccc2)c2c1[C@H](c1ccc(F)cc1)[C@H](NC(=O)c1cccc(C)c1)C(=O)N2CC [RG-0013063, N-[(4S,5S)-7-ethyl-4-(4-fluorophenyl)-6-oxo-1-phenyl-3-[(prop-2-enamido)methyl]-1H,4H,5H,6H,7H-pyrazolo[3,4-b]pyridin-5-yl]-3-methylbenzamide] | 96.8 ± 7.21
